Experimental data: patent US8372844B2, “Piperazinyl-propyl-pyrazole derivatives as dopamine D4 receptor antagonists, and pharmaceutical compositions containing the same” (Korea Research Institute of Chemical Technology, priority 2007, dated 2013)

How the values were obtained:
5-HT2C receptor = target: T1, 5-HT2C receptor (Homo sapiens, UniProt P28335); assay: Serotonin receptor binding experiment, 5-HT2C; design: species or system human or rat; conditions: [3H]Mesulergine 1 nM, 30 min at 37° C.; read-out: Receptor affinity (IC50, nM) 5-HT2C
T1 sequence (P28335 33-458): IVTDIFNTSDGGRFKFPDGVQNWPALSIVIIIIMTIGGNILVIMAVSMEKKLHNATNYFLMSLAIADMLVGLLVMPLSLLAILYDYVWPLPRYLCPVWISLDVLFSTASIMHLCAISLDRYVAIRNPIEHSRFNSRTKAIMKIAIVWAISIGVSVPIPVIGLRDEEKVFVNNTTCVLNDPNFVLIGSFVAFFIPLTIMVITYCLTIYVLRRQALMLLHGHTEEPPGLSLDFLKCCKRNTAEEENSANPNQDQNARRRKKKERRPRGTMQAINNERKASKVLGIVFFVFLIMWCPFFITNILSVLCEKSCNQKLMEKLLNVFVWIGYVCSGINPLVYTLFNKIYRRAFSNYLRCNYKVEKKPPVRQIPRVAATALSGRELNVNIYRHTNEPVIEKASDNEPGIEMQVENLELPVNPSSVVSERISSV
Method: (§1) The measurement of affinity for serotonin 5-HT receptor family was performed according to the experimental conditions as specified in Table 2 below using the method same as in Experimental Example 1 above.

5-HT6 receptor = 5-HT6 receptor (Homo sapiens, UniProt P50406); assay: Serotonin receptor binding experiment, 5-HT6; design: species or system human or rat; conditions: [3H]LSD 1.8 nM, 60 min at 37° C.; read-out: Receptor affinity (IC50, nM) 5-HT6
Method: as §1

5-HT2A receptor = 5-HT2A receptor (Homo sapiens, UniProt P28223); assay: Serotonin receptor binding experiment, 5-HT2A; design: species or system human or rat; conditions: [3H]ketanserin 1 nM, 15 min at 37° C.; read-out: Receptor affinity (IC50, nM) 5-HT2A
Method: as §1

[1] = target: T2, Human recombinant dopamine D3 receptor (Homo sapiens, UniProt P35462); assay: Measurement of affinity for dopamine D3 receptor ([3H]spiperone binding); conditions: [3H]spiperone 0.8 nM, CHO cell line, 60 min at 27° C.
T2 construct: purchased Euroscreen; host or cells: CHO cell line
Method: Human recombinant dopamine D2 and D3 receptors, which were expressed in CHO cell lines, respectively, were purchased from PerkinElmer and Euroscreen, respectively.
50 mM Tris-HCl (pH 7.4) containing […] and 1 mM EDTA was used as a buffer solution for the measurement of affinity for dopamine D2 receptor. 50 mM Tris-HCl (pH 7.4) containing 5 mM MgCl2, 5 mM EDTA, 5 mM KCl, 1.5 mM CaCl2 and 120 mM NaCl was used as a buffer solution for the measurement of affinity for dopamine D3 receptor. For measurement of non-specific binding, 10 μM haloperidol (haloperidol) was used.

Rotarod deficit in mice [2] = format: in vivo; conditions: mouse, in vivo, ip, mice, rod rotating at 6 rpm, 30-120 min after administration
Method: (§2) Each mouse was administered with a test drug, and then placed on a 1 inch diameter knurled plastic rod rotating at 6 rpm (Ugo-Basile, Milano, Italy), and the rotarod deficit (%) was obtained by counting the number of mice fallen from the rotating rod within 1 min at 30, 60, 90, and 120 min after the administration of the drug.

rotarod deficit in mice [3] = assay: Rotarod deficit in mice; format: in vivo; conditions: for Rotarod deficit TD50 (mg/kg, ip): mice, rod rotating at 6 rpm, 30-120 min after administration; for rotarod deficit TD50 as times of ED50 for antipsychotic efficacy: mouse, in vivo, ip
Method: as §2

5-HT1A receptor = target: T3, 5-HT1A receptor (Homo sapiens, UniProt P08908); assay: Serotonin receptor binding experiment, 5-HT1A; design: species or system human or rat; conditions: [3H]8-OH-DPAT 0.5 nM, 60 min at 27° C.; read-out: Receptor affinity (IC50, nM) 5-HT1A
T3 sequence (P08908 1-422): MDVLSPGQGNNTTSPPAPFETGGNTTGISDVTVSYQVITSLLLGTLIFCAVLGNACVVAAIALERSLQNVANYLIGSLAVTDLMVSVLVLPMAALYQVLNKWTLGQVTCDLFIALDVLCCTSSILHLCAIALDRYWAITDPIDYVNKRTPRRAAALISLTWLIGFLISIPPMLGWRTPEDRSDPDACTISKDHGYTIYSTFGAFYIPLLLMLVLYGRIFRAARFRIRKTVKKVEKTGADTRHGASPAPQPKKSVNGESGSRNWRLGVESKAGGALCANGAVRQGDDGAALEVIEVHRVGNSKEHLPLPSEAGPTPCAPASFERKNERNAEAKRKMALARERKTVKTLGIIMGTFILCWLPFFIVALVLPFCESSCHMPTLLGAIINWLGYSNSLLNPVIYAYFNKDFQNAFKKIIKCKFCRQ
Method: as §1

[4] = test system: apomorphine-induced cage climbing in mice; assay: Apomorphine-induced climbing behavior in mice; format: in vivo; conditions: ip 30 min prior to apomorphine (1 mg/kg, sc); for ED50: Mus musculus, read-out: Inhibitory effects on apomorphine-induced climbing behavior ED50 (mg/kg, ip)
Method: When mice were treated with apomorphine (1 mg/kg, sc), a potent dopamine receptor agonist, and were put into cylindrical cages (diameter, 12 cm/height, 14 cm) with the floor and wall consisting of metal bars and covered with a lid, they begin to perform repeatedly a psychotic behavior of ‘cage climbing’. Their climbing behaviors were monitored every 10 min for 30 min and scored by 4-point rating scale (0˜3 points) depending on the extent of the behavior (Costentin, J. et al., Nature 1975, 257, 405-7; Protais, P. et al., Psychopharmacology 1976, 50, 1-6).
The compounds were injected intraperitoneally into mice 30 min prior to apomorphine administration. The inhibitory effects of the compounds against control group were measured and each ED50 was calculated therefrom.

5-HT7 receptor = 5-HT7 receptor (Homo sapiens, UniProt P34969); assay: Serotonin receptor binding experiment, 5-HT7; design: species or system human or rat; conditions: [3H]LSD 3 nM, 90 min at 27° C.; read-out: Receptor affinity (IC50, nM) 5-HT7
Method: as §1

5-HT2A receptor, sequence (P28223 whole entry): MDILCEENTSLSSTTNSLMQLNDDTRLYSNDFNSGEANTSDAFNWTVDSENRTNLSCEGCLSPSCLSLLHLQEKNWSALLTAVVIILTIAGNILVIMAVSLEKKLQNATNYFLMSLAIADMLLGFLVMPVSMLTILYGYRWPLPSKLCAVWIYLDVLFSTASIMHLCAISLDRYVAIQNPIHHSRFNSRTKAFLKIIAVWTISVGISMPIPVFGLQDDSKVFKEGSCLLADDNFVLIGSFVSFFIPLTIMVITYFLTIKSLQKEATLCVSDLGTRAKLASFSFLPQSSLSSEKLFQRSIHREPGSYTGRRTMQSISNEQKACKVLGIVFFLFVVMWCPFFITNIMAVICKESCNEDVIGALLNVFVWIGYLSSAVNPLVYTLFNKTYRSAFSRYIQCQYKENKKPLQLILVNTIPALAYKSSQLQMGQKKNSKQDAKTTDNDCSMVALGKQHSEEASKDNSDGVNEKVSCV
5-HT7 receptor, sequence (P34969 whole entry): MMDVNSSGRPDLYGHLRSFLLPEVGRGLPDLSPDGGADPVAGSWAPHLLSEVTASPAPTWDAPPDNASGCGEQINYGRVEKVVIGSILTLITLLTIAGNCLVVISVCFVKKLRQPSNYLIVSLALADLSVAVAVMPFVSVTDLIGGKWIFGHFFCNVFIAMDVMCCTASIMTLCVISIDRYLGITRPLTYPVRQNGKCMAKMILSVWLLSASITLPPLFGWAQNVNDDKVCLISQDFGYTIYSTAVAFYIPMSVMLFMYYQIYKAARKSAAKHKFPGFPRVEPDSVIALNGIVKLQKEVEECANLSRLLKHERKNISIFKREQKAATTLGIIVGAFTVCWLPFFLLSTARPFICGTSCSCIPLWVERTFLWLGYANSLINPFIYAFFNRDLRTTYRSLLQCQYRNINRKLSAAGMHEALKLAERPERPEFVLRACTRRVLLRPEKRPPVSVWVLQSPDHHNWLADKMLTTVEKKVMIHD
5-HT6 receptor, sequence (P50406 whole entry): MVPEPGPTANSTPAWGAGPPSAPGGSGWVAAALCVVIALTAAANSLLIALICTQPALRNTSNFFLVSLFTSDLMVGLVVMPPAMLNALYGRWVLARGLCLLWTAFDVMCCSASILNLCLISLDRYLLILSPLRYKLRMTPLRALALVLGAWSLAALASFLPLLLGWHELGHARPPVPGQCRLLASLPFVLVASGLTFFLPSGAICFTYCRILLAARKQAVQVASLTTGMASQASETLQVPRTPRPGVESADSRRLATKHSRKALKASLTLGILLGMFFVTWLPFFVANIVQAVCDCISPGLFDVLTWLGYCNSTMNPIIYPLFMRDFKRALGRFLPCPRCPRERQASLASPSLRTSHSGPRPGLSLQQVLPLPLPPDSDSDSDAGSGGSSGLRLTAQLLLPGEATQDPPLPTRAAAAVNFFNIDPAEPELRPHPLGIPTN
T2 sequence (P35462 whole entry): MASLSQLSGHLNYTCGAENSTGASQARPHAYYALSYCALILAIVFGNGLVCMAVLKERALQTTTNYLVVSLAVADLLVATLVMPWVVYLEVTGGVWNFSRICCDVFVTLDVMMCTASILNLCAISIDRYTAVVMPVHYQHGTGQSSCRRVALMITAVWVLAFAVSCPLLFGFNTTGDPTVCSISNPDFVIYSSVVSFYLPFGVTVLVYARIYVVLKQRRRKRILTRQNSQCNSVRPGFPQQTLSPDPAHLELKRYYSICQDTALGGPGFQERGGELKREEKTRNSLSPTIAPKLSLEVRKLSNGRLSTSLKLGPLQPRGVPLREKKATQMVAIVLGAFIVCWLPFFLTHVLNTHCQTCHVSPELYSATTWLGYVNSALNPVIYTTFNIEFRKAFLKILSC

| Structure (SMILES) | IC50 (5-HT2C receptor) [nM] | IC50 (5-HT6 receptor) [nM] | IC50 (5-HT2A receptor) [nM] | IC50 [1] [nM] | TD50 (Rotarod deficit in mice [2]) [mg/kg] | Rotarod deficit TD50 (mg/kg, ip) (rotarod deficit in mice [3]) [mg/kg] | rotarod deficit TD50 as times of ED50 for antipsychotic efficacy (rotarod deficit in mice [3]) | IC50 (5-HT1A receptor) [nM] | ED50 [4] [mg/kg] | Inhibitory effects on apomorphine-induced climbing behavior ED50 (mg/kg, ip) [4] [mg/kg] | IC50 (5-HT7 receptor) [nM] |
| --- | --- | --- | --- | --- | --- | --- | --- | --- | --- | --- | --- |
| CCCc1cc(CCCN2CCN(c3ccccc3)CC2)n(-c2ccccc2)n1 [Compound 155, 1-phenyl-4-(3-(1-phenyl-3-propyl-1H-pyrazol-5-yl)propyl)piperazine] | 671 | > 10000 | 35 | 461 | 20 to 50 | 28.5 | 2.2-5 times | 109 | 8.8 to 14.5 | 10.7 | 259 |
| CCCc1cc(CCCN2CCN(c3ccccc3F)CC2)n(-c2ccccc2)n1 [Compound 156, 1-(2-fluorophenyl)-4-(3-(1-phenyl-3-propyl-1H-pyrazol-5-yl)propyl)piperazine] | 1400 | > 10000 | 152 | 87 | 20 to 50 | 26.0 | 2.2-5 times | 126 | 8.8 to 14.5 | 9.6 | 313 |
| CCCc1cc(CCCN2CCN(c3ccc(C)c(C)c3)CC2)n(-c2ccccc2)n1 [Compound 159, 1-(3,4-dimethylphenyl)-4-(3-(1-phenyl-3-propyl-1H-pyrazol-5-yl)propyl)piperazine] | 154 | 2500 | 8 | 131 | 20 to 50 | 35.3 | 2.2-5 times | 413 | 8.8 to 14.5 | 9.1 | 195 |
| CCCc1cc(CCCN2CCN(c3cccc(C)c3C)CC2)n(-c2ccccc2)n1 [Compound 160, 1-(2,3-dimethylphenyl)-4-(3-(1-phenyl-3-propyl-1H-pyrazol-5-yl)propyl)piperazine] | 141 | 2010 | 65 | 229 | 20 to 50 | 24.6 | 2.2-5 times | 50 | 8.8 to 14.5 | 10.6 | 84 |
| CC(C)c1cc(CCCN2CCN(c3ccccc3F)CC2)n(-c2ccccc2)n1 [Compound 177, 1-(2-fluorophenyl)-4-(3-(1-phenyl-3-isopropyl-1H-pyrazol-5-yl)propyl)piperazine] | 505 | 9210 | 27 | 687 | 20 to 50 | 19.4 | 2.2-5 times | 37 | 8.8 to 14.5 | 8.8 | 252 |
